Measured values from the CheMixHub viscosity set.

Assay: xn = mol fraction of the nth substance listed

COC(=O)OC + CO
Settings	viscosity [mPa·s]
293.15 K, 101 kPa, x1 = 0.0381	0.5792
293.15 K, 101 kPa, x1 = 0.0818	0.5612
293.15 K, 101 kPa, x1 = 0.1346	0.5507
293.15 K, 101 kPa, x1 = 0.1927	0.5478
293.15 K, 101 kPa, x1 = 0.2626	0.5418
293.15 K, 101 kPa, x1 = 0.348	0.536
293.15 K, 101 kPa, x1 = 0.4533	0.5379
293.15 K, 101 kPa, x1 = 0.5871	0.548
293.15 K, 101 kPa, x1 = 0.7618	0.564
293.15 K, 101.3 kPa, x1 = 0.0537	0.567
293.15 K, 101.3 kPa, x1 = 0.0996	0.551
293.15 K, 101.3 kPa, x1 = 0.2058	0.536
293.15 K, 101.3 kPa, x1 = 0.3135	0.533
293.15 K, 101.3 kPa, x1 = 0.41	0.535
293.15 K, 101.3 kPa, x1 = 0.5086	0.54
293.15 K, 101.3 kPa, x1 = 0.6104	0.545
293.15 K, 101.3 kPa, x1 = 0.7229	0.554
293.15 K, 101.3 kPa, x1 = 0.8338	0.57
293.15 K, 101.3 kPa, x1 = 0.9067	0.586
293.15 K, 101.3 kPa, x1 = 0.9509	0.6
298.15 K, 101 kPa, x1 = 0.0381	0.5373
298.15 K, 101 kPa, x1 = 0.0818	0.5292
298.15 K, 101 kPa, x1 = 0.1346	0.5164
298.15 K, 101 kPa, x1 = 0.1927	0.5119
298.15 K, 101 kPa, x1 = 0.2626	0.5061
298.15 K, 101 kPa, x1 = 0.348	0.503
298.15 K, 101 kPa, x1 = 0.4533	0.5058
298.15 K, 101 kPa, x1 = 0.5871	0.5227
298.15 K, 101 kPa, x1 = 0.7618	0.5374
298.15 K, 101.3 kPa, x1 = 0.0506	0.531
298.15 K, 101.3 kPa, x1 = 0.1042	0.518
298.15 K, 101.3 kPa, x1 = 0.2079	0.502
298.15 K, 101.3 kPa, x1 = 0.3011	0.498
298.15 K, 101.3 kPa, x1 = 0.3963	0.498
298.15 K, 101.3 kPa, x1 = 0.4931	0.504
298.15 K, 101.3 kPa, x1 = 0.589	0.509
298.15 K, 101.3 kPa, x1 = 0.6927	0.517
298.15 K, 101.3 kPa, x1 = 0.8137	0.53
298.15 K, 101.3 kPa, x1 = 0.8997	0.548
298.15 K, 101.3 kPa, x1 = 0.9575	0.566
298.15 K, 101.33 kPa, x1 = 0.0989	0.482
298.15 K, 101.33 kPa, x1 = 0.2009	0.462
298.15 K, 101.33 kPa, x1 = 0.3008	0.458
298.15 K, 101.33 kPa, x1 = 0.4008	0.457
298.15 K, 101.33 kPa, x1 = 0.5	0.462
298.15 K, 101.33 kPa, x1 = 0.6002	0.468
298.15 K, 101.33 kPa, x1 = 0.7016	0.474
298.15 K, 101.33 kPa, x1 = 0.8015	0.496
298.15 K, 101.33 kPa, x1 = 0.9028	0.511
303.15 K, 101 kPa, x1 = 0.0381	0.5011
303.15 K, 101 kPa, x1 = 0.0818	0.4896
303.15 K, 101 kPa, x1 = 0.1346	0.4814
303.15 K, 101 kPa, x1 = 0.1927	0.479
303.15 K, 101 kPa, x1 = 0.2626	0.4723
303.15 K, 101 kPa, x1 = 0.348	0.474
303.15 K, 101 kPa, x1 = 0.4533	0.473
303.15 K, 101 kPa, x1 = 0.5871	0.4884
303.15 K, 101 kPa, x1 = 0.7618	0.5087
303.15 K, 101.3 kPa, x1 = 0.026	0.503
303.15 K, 101.3 kPa, x1 = 0.0707	0.489
303.15 K, 101.3 kPa, x1 = 0.1832	0.469
303.15 K, 101.3 kPa, x1 = 0.2839	0.467
303.15 K, 101.3 kPa, x1 = 0.3823	0.468
303.15 K, 101.3 kPa, x1 = 0.4869	0.472
303.15 K, 101.3 kPa, x1 = 0.5847	0.475
303.15 K, 101.33 kPa, x1 = 0.0989	0.443
303.15 K, 101.33 kPa, x1 = 0.2009	0.432
303.15 K, 101.33 kPa, x1 = 0.3008	0.427
303.15 K, 101.33 kPa, x1 = 0.4008	0.429
303.15 K, 101.33 kPa, x1 = 0.6002	0.439
303.15 K, 101.33 kPa, x1 = 0.7016	0.447
303.15 K, 101.33 kPa, x1 = 0.8015	0.459
303.15 K, 101.33 kPa, x1 = 0.9028	0.48
308.15 K, 101.33 kPa, x1 = 0.0989	0.415
308.15 K, 101.33 kPa, x1 = 0.2009	0.406
308.15 K, 101.33 kPa, x1 = 0.3008	0.404
308.15 K, 101.33 kPa, x1 = 0.4008	0.403
308.15 K, 101.33 kPa, x1 = 0.5	0.406
308.15 K, 101.33 kPa, x1 = 0.6002	0.421
308.15 K, 101.33 kPa, x1 = 0.7016	0.419
308.15 K, 101.33 kPa, x1 = 0.8015	0.433
308.15 K, 101.33 kPa, x1 = 0.9028	0.456
313.15 K, 101 kPa, x1 = 0.0381	0.4382
313.15 K, 101 kPa, x1 = 0.0818	0.4297
313.15 K, 101 kPa, x1 = 0.1346	0.4193
313.15 K, 101 kPa, x1 = 0.1927	0.4192
313.15 K, 101 kPa, x1 = 0.2626	0.4166
313.15 K, 101 kPa, x1 = 0.348	0.4177
313.15 K, 101 kPa, x1 = 0.4533	0.4181
313.15 K, 101 kPa, x1 = 0.5871	0.4314
313.15 K, 101 kPa, x1 = 0.7618	0.4469
323.15 K, 101 kPa, x1 = 0.0381	0.3851
323.15 K, 101 kPa, x1 = 0.0818	0.3724
323.15 K, 101 kPa, x1 = 0.1346	0.3704
323.15 K, 101 kPa, x1 = 0.1927	0.3692
323.15 K, 101 kPa, x1 = 0.2626	0.3685
323.15 K, 101 kPa, x1 = 0.348	0.3693
323.15 K, 101 kPa, x1 = 0.4533	0.3745
323.15 K, 101 kPa, x1 = 0.5871	0.3867
323.15 K, 101 kPa, x1 = 0.7618	0.3997

NCCCN + CC(O)CO
viscosity [mPa·s], 101.3 kPa
Settings	293.15 K	298.15 K	303.15 K	308.15 K	313.15 K	318.15 K
x2 = 0.0488	2.44	2.19	1.92	1.68	1.48	1.32
x2 = 0.0977	3.15	2.8	2.43	2.08	1.82	1.58
x2 = 0.1467	3.95	3.45	2.97	2.51	2.17	1.91
x2 = 0.1958	5.23	4.5	3.79	3.17	2.7	2.34
x2 = 0.2451	6.85	5.81	4.87	4	3.36	2.88
x2 = 0.2945	9.15	7.62	6.28	5.09	4.2	–
x2 = 0.3441	12.3	10	8.12	6.48	5.29	–
x2 = 0.3937	17	13.6	10.8	8.39	6.74	–
x2 = 0.4435	22.8	17.9	14	10.7	8.55	–
x2 = 0.4934	30	23.2	17.9	13.6	10.6	–
x2 = 0.5435	38.5	29.3	22.2	16.7	12.9	–
x2 = 0.5937	47.4	35.8	27	20.1	15.4	–
x2 = 0.644	55.5	41.8	31.4	23.2	17.6	–
x2 = 0.6945	62.5	46.9	35.1	25.9	19.7	–
x2 = 0.745	67.1	50.3	37.8	27.8	21.2	–
x2 = 0.7958	69	51.8	38.8	28.8	21.9	–
x2 = 0.8466	68.9	51.9	39	28.9	22	–
x2 = 0.8976	66.1	50	37.7	28.1	21.5	–
x2 = 0.9487	62.3	47.1	35.7	26.8	20.5	–
